The source of these data is US10364247B2, “Preparation and use of novel protein kinase inhibitors” (Ruijin Hospital Affiliated to Shanghai Jiao Tong University …, priority 2015, dated 2019).

Type in all cases: cell-based, murine
In one assay the target is T1, BaF3-BCR/ABL-T315I (Homo sapiens, UniProt P00519, T315I, cells depend on it).
T1 construct: fused on or other part: P11274 (Breakpoint cluster region protein)
The assay is described as follows: Antiproliferative activity, kinase-dependent Ba/F3 cells (MTT/MTS). Particulars: 48 hours, cell viability, read-out: BCR/ABL T315I IC50. In short, it runs like this: (§1)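 Murine Ba/F3 cells transformed with BCR/ABL (p210) or BCR/ABL-T315I, grown in RPMI/10% FCS without IL3, were seeded at 20,000 cells/well. Viability was read by MTT/MTS. IC50 is the concentration reducing viability to 50% of DMSO vehicle control.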

In another assay the target is T2, BaF3-BCR/ABL (Homo sapiens, UniProt P00519).
T2 construct: fused on or other part: P11274 (Breakpoint cluster region protein)
The assay is described as above. Particulars: 48 hours, cell viability, read-out: BCR/ABL IC50. In short, it runs like this: as §1

The next assay deals with Wt-BaF3. The assay is described as follows: Parental Ba/F3 cell proliferation (CellTiter Glo). The settings on record: Mus musculus, parental BaF/3 cells, 48 hours. How it is done: The murine cell line used is the BaF/3 cell line transformed with BCR/ABL cDNA (BaF/3-p210) or BCR/ABL-T315I mutant (Ba/F3-p210-T315I). These cells are maintained in RPMI/10% fetal calf serum (RPMI/FCS) supplemented with penicillin 50 μg/mL, streptomycin 50 μg/mL and L-glutamine […]. Untransformed BaF/3 cells (Wt-BaF/3) are similarly maintained with the addition of 15% of WEHI conditioned medium as a source of IL3.
(§2) The BaF/3 cell line transformed with oncogenic NRAS or KRAS (BaF/3-NRASD12 or BaF/3-KRASD12) and the parental BaF/3 cells were used to measure the abilities of compounds of the invention to suppress RAS transformation (Table 5). Cells were seeded at a density of 5000 cells/well into 96-well plates. […] The background control wells to which media with no cells added and the vehicle control wells were included on each plate in triplicate. Cell viability was determined using CellTiter Glo Assay (Promega) according to manufacture's instruction with a minor modification of diluting 1 part CellTiter Glo reagent to 4 parts phosphate buffered saline (PBS) before use. The luminescence value was read out by an Envision (PerkinElmer).
For orientation: In ATP-based viability assays light output follows the ATP content of the culture.

Another assay has as its target T3, BaF3-EML4-ALK (Homo sapiens, UniProt Q9UM73).
T3 construct: fused on or other part: Q9HC35 (Echinoderm microtubule-associated protein-like 4)
The assay is described as follows: Antiproliferative activity, kinase-dependent Ba/F3 cells (MTT/MTS). Particulars: 48 hours, cell viability, read-out: EML4-ALK IC50. The method, boiled down:
(§3)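 Murine Ba/F3 cells transformed with the indicated TEL- or EML4-fusion kinases, seeded at 20,000 cells/well in RPMI/10% FCS. Viability by MTT/MTS; IC50 as concentration reducing viability to 50% of DMSO vehicle control.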

The target of a further assay is T4, BaF3-TEL-INSR (Homo sapiens, UniProt P06213).
T4 construct: fused on or other part: P41212 (Transcription factor ETV6)
T4 sequence (P06213 whole entry, stated change not applied, the tested form may be a part): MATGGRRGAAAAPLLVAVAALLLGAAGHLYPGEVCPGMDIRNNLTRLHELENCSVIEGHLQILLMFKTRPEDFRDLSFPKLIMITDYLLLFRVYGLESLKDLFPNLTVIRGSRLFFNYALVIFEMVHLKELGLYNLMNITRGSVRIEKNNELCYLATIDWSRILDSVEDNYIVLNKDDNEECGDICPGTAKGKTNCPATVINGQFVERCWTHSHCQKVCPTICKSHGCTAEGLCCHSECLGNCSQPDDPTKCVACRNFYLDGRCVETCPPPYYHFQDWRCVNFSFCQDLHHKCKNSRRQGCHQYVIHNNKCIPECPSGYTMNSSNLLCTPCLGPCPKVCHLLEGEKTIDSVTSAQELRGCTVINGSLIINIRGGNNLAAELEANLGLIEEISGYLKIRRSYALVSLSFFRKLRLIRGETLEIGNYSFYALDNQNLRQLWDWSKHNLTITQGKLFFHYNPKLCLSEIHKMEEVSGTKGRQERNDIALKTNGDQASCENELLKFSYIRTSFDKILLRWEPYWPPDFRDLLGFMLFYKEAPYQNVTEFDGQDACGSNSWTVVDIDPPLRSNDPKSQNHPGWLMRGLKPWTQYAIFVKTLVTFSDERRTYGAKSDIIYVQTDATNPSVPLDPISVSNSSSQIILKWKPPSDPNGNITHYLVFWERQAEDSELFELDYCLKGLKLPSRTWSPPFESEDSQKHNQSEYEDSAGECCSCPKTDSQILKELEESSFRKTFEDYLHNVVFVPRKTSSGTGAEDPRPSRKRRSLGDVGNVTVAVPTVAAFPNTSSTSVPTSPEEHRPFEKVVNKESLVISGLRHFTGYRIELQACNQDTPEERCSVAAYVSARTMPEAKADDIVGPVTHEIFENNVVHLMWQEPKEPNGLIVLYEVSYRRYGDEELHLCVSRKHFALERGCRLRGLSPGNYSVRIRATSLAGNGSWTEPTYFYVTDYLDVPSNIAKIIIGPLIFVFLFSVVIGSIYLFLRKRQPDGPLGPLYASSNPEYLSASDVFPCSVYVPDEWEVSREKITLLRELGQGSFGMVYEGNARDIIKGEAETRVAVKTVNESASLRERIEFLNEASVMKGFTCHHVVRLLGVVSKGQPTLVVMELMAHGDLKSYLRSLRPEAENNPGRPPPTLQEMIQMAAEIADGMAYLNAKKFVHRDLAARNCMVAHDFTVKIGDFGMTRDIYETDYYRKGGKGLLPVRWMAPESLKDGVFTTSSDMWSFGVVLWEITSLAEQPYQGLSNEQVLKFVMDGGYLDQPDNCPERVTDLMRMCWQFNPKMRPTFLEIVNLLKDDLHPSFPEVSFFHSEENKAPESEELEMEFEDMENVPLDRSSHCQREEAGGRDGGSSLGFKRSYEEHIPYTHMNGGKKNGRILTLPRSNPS
The description is as above. Particulars: 48 hours, cell viability, read-out: Tel-INSR IC50. In short, it runs like this:
as §3

In the next assay the target is T5, BaF3-TEL-TIE1 (Homo sapiens, UniProt P35590).
T5 construct: fused on or other part: P41212 (Transcription factor ETV6)
T5 sequence (P35590 whole entry, change not shown, the tested form may be a part): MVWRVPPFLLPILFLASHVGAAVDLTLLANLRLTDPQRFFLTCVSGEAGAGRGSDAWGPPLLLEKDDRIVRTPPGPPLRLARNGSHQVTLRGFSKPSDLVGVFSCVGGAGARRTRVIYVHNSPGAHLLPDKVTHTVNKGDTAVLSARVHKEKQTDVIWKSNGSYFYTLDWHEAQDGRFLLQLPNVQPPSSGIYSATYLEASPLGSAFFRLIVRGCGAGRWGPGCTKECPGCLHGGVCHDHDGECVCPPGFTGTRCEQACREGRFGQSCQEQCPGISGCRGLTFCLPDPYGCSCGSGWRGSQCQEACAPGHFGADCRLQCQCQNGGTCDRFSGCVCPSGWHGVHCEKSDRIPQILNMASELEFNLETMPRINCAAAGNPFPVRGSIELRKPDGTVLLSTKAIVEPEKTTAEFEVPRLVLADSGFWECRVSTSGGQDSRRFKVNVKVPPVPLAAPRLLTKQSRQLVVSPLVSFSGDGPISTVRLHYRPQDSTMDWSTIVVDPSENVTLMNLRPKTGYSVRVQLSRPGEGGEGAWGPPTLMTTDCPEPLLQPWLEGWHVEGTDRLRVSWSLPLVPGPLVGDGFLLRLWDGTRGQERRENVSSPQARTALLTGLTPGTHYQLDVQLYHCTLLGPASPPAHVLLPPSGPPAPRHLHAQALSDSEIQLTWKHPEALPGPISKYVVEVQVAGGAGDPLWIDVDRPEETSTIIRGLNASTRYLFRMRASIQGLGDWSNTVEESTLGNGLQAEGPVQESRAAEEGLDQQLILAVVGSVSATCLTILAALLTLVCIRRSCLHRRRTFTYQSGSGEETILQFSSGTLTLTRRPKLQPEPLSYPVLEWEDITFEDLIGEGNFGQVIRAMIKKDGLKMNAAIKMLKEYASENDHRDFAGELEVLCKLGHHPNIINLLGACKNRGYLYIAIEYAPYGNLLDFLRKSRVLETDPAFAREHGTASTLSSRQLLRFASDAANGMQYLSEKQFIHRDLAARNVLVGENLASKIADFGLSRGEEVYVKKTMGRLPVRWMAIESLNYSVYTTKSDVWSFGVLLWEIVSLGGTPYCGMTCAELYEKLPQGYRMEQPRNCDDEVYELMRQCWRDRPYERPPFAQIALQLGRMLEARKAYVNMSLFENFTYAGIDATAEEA
The assay is described as above. The settings on record: 48 hours, cell viability, read-out: tel-TIE1 IC50. In short, it runs like this:
as §3

A further assay has as its target T6, BaF3-TEL-HCK (Homo sapiens, UniProt P08631).
T6 construct: fused on or other part: P41212 (Transcription factor ETV6)
Described as above. The settings on record: 48 hours, cell viability, read-out: Tel-HCK IC50. In short, it runs like this: as §3

Another assay deals with T7, BaF3-TEL-LYN (Homo sapiens, UniProt P07948).
T7 construct: fused on or other part: P41212 (Transcription factor ETV6)
The description is as above. Particulars: 48 hours, cell viability, read-out: tel-LYN IC50. In short, it runs like this:
as §3

In the next assay the test system is BaF3-NRASD12. The assay is described as follows: Oncogenic RAS dependent cell proliferation (CellTiter Glo). The settings on record: Mus musculus, BaF3-NRASD12 cells, 48 hours, read-out: NRas-BaF3 IC50. How it is done: as §2
For another assay, the system named is BaF3-KRASD12. Described as above. Particulars: Mus musculus, BaF3-KRASD12 cells, 48 hours, read-out: KRas-BaF3 IC50. As to the method: as §2

T3 sequence (Q9UM73 whole entry, change not shown, the tested form may be a part): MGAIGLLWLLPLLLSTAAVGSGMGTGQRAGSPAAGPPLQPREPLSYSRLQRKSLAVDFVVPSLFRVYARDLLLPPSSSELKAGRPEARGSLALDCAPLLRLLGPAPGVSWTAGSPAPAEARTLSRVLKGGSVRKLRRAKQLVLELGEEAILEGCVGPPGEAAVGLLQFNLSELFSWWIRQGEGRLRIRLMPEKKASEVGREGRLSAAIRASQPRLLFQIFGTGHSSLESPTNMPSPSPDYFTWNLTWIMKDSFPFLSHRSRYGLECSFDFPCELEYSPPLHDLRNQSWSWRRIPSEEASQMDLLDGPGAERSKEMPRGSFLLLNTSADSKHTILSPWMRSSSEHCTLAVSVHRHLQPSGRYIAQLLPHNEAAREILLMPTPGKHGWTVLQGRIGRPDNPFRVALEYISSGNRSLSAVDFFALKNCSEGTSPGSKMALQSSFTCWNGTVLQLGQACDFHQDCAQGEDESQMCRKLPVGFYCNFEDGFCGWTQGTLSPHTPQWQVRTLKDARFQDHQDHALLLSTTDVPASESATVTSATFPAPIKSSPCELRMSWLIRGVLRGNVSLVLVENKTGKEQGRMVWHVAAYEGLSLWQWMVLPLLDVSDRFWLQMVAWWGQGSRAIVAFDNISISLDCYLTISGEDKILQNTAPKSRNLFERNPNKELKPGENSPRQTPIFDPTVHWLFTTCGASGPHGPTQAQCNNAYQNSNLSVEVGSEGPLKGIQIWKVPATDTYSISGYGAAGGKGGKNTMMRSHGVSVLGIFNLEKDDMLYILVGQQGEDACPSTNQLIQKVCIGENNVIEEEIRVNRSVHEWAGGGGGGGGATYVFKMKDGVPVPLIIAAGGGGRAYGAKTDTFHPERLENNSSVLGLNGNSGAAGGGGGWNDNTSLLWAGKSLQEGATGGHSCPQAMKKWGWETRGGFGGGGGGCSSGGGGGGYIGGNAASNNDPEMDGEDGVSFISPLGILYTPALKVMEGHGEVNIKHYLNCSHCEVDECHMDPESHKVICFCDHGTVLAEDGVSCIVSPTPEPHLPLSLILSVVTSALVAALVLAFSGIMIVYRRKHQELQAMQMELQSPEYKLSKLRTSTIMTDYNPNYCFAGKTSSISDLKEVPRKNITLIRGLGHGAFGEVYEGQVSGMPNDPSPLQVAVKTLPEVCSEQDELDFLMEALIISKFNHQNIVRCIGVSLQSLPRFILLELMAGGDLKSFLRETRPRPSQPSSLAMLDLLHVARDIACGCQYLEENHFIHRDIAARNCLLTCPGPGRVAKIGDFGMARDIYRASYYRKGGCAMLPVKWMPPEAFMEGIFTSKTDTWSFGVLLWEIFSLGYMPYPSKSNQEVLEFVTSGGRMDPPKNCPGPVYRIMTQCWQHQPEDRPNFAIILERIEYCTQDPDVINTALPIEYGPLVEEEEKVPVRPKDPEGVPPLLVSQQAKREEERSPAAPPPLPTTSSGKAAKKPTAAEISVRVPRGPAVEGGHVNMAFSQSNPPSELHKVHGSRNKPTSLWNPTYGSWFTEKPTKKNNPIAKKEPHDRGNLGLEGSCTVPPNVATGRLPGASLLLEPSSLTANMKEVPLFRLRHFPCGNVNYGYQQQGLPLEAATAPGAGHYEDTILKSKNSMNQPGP
T6 sequence (P08631 whole entry, change not shown, the tested form may be a part): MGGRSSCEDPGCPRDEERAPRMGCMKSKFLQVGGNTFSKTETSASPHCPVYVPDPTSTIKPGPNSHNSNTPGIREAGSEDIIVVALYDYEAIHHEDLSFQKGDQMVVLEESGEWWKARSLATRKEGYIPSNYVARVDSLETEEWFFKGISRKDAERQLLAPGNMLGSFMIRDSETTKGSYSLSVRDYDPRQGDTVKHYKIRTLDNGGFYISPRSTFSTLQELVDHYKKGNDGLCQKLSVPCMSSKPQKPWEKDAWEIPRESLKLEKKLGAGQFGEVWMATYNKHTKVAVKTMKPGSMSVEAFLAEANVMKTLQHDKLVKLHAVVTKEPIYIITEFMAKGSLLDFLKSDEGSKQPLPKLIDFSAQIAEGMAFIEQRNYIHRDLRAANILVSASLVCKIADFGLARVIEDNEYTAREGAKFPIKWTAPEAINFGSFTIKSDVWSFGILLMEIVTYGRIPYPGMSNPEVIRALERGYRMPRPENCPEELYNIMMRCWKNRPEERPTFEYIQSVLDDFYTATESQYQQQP

Turning to `Cc1cc(Nc2ncc3c(n2)N(C)CN(c2cc(NC(=O)c4cccc(C(F)(F)F)c4)ccc2C)C3)n(C)n1` [IA-11, N-(3-(7-((1,3-dimethyl-1H-pyrazol-5-yl)amino)-1-methyl-1,4-dihydropyrimido[4,5-d]pyrimidin-3(2H)-yl)-4-methylphenyl)-3-(trifluoromethyl)benzamide], the GI50 on BaF3-BCR/ABL-T315I was 1760 nM; on BaF3-BCR/ABL, 7.96 nM; on BaF3-EML4-ALK, 2220 nM; at BaF3-TEL-INSR, 2280 nM; on BaF3-TEL-TIE1 it was 736 nM; at BaF3-TEL-HCK, 1390 nM. In addition, the GI50 at BaF3-TEL-LYN came out at 927 nM. Further, the IC50 in the assay with Wt-BaF3 stood at 13500 nM; with BaF3-NRASD12, 1020 nM; in the assay with BaF3-KRASD12 it was 1490 nM.
Regarding `Cc1ccc(NC(=O)c2cccc(C(F)(F)F)c2)cc1N1Cc2cnc(Nc3ccc(N4CCOCC4)nc3)nc2N(C)C1` [IA-15, N-(4-methyl-3-(1-methyl-7-((6-morpholinopyridin-3-yl)amino)-1,4-dihydropyrimido[4,5-d]pyrimidin-3(2H)-yl)phenyl)-3-(trifluoromethyl)benzamide], the GI50 at BaF3-BCR/ABL-T315I was found to be 132 nM; at BaF3-BCR/ABL, 4.18 nM; at BaF3-EML4-ALK, 1160 nM; on BaF3-TEL-INSR, 902 nM; at BaF3-TEL-TIE1, 355 nM; on BaF3-TEL-HCK, 680 nM. For the same compound, at BaF3-TEL-LYN, the GI50 was 264 nM. Further, the IC50 in the assay on Wt-BaF3 amounted to 1770 nM; in the assay with BaF3-NRASD12 it was 404 nM; with BaF3-KRASD12, 388 nM.
Consider `CCN(CC)c1ccc(Nc2ncc3c(n2)N(C)CN(c2cc(NC(=O)c4cccc(C(F)(F)F)c4)ccc2C)C3)cn1` [IA-12, N-(3-(7-((6-(diethylamino)pyridin-3-yl)amino)-1-methyl-1,4-dihydropyrimido[4,5-d]pyrimidin-3(2H)-yl)-4-methylphenyl)-3-(trifluoromethyl)benzamide], for which the GI50 at BaF3-BCR/ABL-T315I worked out at 4500 nM; on BaF3-BCR/ABL, 205 nM; on BaF3-EML4-ALK, 3190 nM; on BaF3-TEL-INSR it was 977 nM; on BaF3-TEL-TIE1 it was 1350 nM; on BaF3-TEL-HCK it was 3070 nM. Moreover, the GI50 on BaF3-TEL-LYN was found to be 1160 nM. For the same compound, the results for the half-inhibitory concentration (IC50) in the assay with Wt-BaF3, in the assay on BaF3-NRASD12 and with BaF3-KRASD12 were 4110 nM, 2300 nM and 1820 nM, respectively.
As for `CCN1CN(c2cc(NC(=O)c3cccc(C(F)(F)F)c3)ccc2C)Cc2cnc(Nc3ccc(C)nc3)nc21` [IB-1, N-(3-(1-ethyl-7-((6-methylpyridin-3-yl)amino)-1,4-dihydropyrimido[4,5-d]pyrimidin-3(2H)-yl)-4-methylphenyl)-3-(trifluoromethyl)benzamide], the GI50 came out at 881 nM at BaF3-BCR/ABL-T315I; 5.96 nM on BaF3-BCR/ABL; 2640 nM at BaF3-EML4-ALK; 3230 nM at BaF3-TEL-INSR; 1290 nM at BaF3-TEL-TIE1; 327 nM on BaF3-TEL-HCK. Also, at BaF3-TEL-LYN, the GI50 was found to be 1260 nM. For the same compound, the values for the IC50 in the assay on Wt-BaF3, in the assay with BaF3-NRASD12 and in the assay on BaF3-KRASD12 were 4840 nM, 1500 nM and 2110 nM, respectively.
For `COc1cc(C(=O)N2CCN(C)CC2)ccc1Nc1ncc2c(n1)N(C)CN(c1cc(NC(=O)c3cccc(C(F)(F)F)c3)ccc1C)C2` [IA-16, N-(3-(7-((2-methoxy-4-(4-methylpiperazine-1-carbonyl)phenyl)amino)-1-methyl-1,4-dihydropyrimido[4,5-d]pyrimidin-3(2H)-yl)-4-methylphenyl)-3-(trifluoromethyl)benzamide], the GI50 came to 4370 nM at BaF3-BCR/ABL-T315I; 1710 nM on BaF3-BCR/ABL; 1540 nM on BaF3-EML4-ALK; 3960 nM on BaF3-TEL-INSR; 1580 nM at BaF3-TEL-TIE1; 2880 nM at BaF3-TEL-HCK. Moreover, the GI50 at BaF3-TEL-LYN is 2000 nM. For the same compound, the IC50 came to 4420 nM in the assay on Wt-BaF3, 4410 nM with BaF3-NRASD12 and 4310 nM with BaF3-KRASD12.
Turning to `Cc1ccc(NC(=O)c2cccc(C(F)(F)F)c2)cc1N1Cc2cnc(Nc3ccc(N4CCC(O)CC4)nc3)nc2N(C)C1` [IA-13, N-(3-(7-((6-(4-hydroxypiperidin-1-yl)pyridin-3-yl)amino)-1-methyl-1,4-dihydropyrimido[4,5-d]pyrimidin-3(2H)-yl)-4-methylphenyl)-3-(trifluoromethyl)benzamide], the GI50 on BaF3-BCR/ABL-T315I stood at 226 nM; on BaF3-BCR/ABL, 5.85 nM; at BaF3-EML4-ALK, 1870 nM; on BaF3-TEL-INSR, 320 nM; on BaF3-TEL-TIE1, 289 nM; on BaF3-TEL-HCK, 192 nM. For the same compound, the GI50 on BaF3-TEL-LYN was determined as 132 nM. In addition, the IC50 was 2340 nM in the assay with Wt-BaF3, 501 nM in the assay with BaF3-NRASD12 and 402 nM in the assay on BaF3-KRASD12.
`Cc1ccc(Nc2ncc3c(n2)N(C2CC2)CN(c2cc(NC(=O)c4cccc(C(F)(F)F)c4)ccc2C)C3)cn1` [IB-2, N-(3-(1-cyclopropyl-7-((6-methylpyridin-3-yl)amino)-1,4-dihydropyrimido[4,5-d]pyrimidin-3(2H)-yl)-4-methylphenyl)-3-(trifluoromethyl)benzamide]: the GI50 at BaF3-BCR/ABL-T315I was 2900 nM; on BaF3-BCR/ABL, 53.8 nM; on BaF3-EML4-ALK, 3130 nM; on BaF3-TEL-INSR, 2160 nM; on BaF3-TEL-TIE1 it was 1090 nM; on BaF3-TEL-HCK, 2090 nM. The GI50 on BaF3-TEL-LYN worked out at 1200 nM. The IC50 in the assay on Wt-BaF3 stood at 6030 nM; in the assay with BaF3-NRASD12, 1400 nM; in the assay with BaF3-KRASD12, 1780 nM.

The IC50 is the concentration at which inhibition is half-maximal.
